Laboratory results: the NIST ThermoML archive (doi:10.1021/je060336+)
Numbers after ± are expanded uncertainties.

Conditions: Liquid

Structure (SMILES)	vapor or sublimation pressure (313.15 K) [kPa]	vapor or sublimation pressure (323.15 K) [kPa]	vapor or sublimation pressure (333.15 K) [kPa]	vapor or sublimation pressure (343.15 K) [kPa]	vapor or sublimation pressure (353.15 K) [kPa]	vapor or sublimation pressure (363.15 K) [kPa]
CCCC [butane]	377 ± 3	495 ± 4	639 ± 5	810 ± 6	1012 ± 8	1250 ± 10
CC(F)(F)F [1,1,1-trifluoroethane]	1831 ± 14	2302 ± 18	2874 ± 22	3553 ± 28	–	–
